Source: paper PMC9320114 (Molecules, 2022)

Assays:
MurC = MurC (Escherichia coli, UniProt P17952); test: Inhibition of MurC, colorimetric malachite green method; type: biochemical, bacterial; settings: for remaining activity at 100 µM: 0.25 h, residual activity at 100 µM, read-out: MurC RA (%); for remaining activity at 100 µM / IC50: Table 2; for IC50: IC50 ± SEM, read-out: MurC IC50; for MurC inhibition (in words): assayed at 100 µM
Description: Inhibition of Mur enzymes was monitored with the colorimetric malachite green method, which measured orthophosphate formed during reaction. The mixtures with a final volume of 50 µL contained:
MurC: 50 mM HEPES-NaOH, pH 8.0, 5 mM MgCl2, 0.005% Triton X-114, 120 µM L-Ala, 120 µM UDP-N-acetyl-muramic acid, 450 µM ATP, purified MurC, and 50 or 100 µM of each compound tested.
All compounds were soluble in the assay mixtures containing 5% DMSO (v/v). After incubation for 15 min (20 min for DdlB) at 37 °C, the enzyme reaction was terminated by addition of Biomol® reagent (100 µL) and absorbance was measured after 5 min at 650 nm (Synergy™ H4 microplate reader; BioTek Instruments, Inc., BioTek Gen5 Data Analysis Software, version 2.9, Santa Clara, CA, USA). All experiments were performed in duplicate.

hMAO-A = target: T1, hMAO-A (Homo sapiens, UniProt P21397); test: Inhibition of hMAO-A, fluorimetric Amplex Red assay; type: biochemical; settings: residual activity at 10 µM; for remaining activity at 10 µM: read-out: hMAO-A RA (%)
T1 construct: purchased Sigma Aldrich; host or cells: BTI-TN-5B1-4 baculovirus-infected insect cells
T1 sequence (P21397 1-527): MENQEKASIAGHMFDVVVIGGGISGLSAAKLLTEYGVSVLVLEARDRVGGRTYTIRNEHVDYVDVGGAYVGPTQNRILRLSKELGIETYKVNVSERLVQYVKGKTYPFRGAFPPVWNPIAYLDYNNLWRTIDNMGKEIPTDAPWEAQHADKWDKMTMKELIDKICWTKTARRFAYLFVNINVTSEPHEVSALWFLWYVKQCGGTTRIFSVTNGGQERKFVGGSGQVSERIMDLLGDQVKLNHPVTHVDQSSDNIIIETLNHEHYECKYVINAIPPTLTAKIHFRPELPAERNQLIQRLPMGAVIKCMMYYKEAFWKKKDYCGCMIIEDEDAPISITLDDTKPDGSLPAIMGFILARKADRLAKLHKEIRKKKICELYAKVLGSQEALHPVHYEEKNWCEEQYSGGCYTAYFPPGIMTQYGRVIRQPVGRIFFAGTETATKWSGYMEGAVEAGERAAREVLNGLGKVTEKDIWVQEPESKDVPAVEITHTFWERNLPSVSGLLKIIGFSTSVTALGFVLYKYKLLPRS
Description: (§1) The effects of the compounds on hMAO-A and hMAO-B were investigated using a fluorimetric assay, following a method previously described in the literature. Recombinant human microsomal hMAO enzymes expressed in BTI-TN-5B1-4 baculovirus-infected insect cells, horseradish peroxidase (HRP, type II, lyophilized powder), and p-tyramine hydrochloride were purchased from Sigma Aldrich. 10-Acetyl-3,7-dihydroxyphenoxazine (Amplex Red reagent) was synthesized as described in the literature.
Briefly, 100 µL of 50 mM sodium phosphate buffer (pH 7.4, 0.05% (v/v) Triton X-114), containing the compounds and hMAO-A or hMAO-B, was incubated for 15 min at 37 °C in a flat-bottomed black 96-well microplate protected from ambient light. After preincubation, the reaction was started by adding final concentrations of 200 µM Amplex Red reagent, 2 U/mL HRP, and 1 mM p-tyramine hydrochloride. Resorufin production was quantified based on the fluorescence produced (λex = 530 nm; λem = 590 nm) at 37 °C over a 20 min period. For the control experiments, DMSO was used instead of appropriate dilutions of the compounds in DMSO. For the determination of blank (b), the enzyme solution was replaced by a phosphate-buffered solution. Initial velocities were calculated from the obtained trend, with each measurement performed in duplicate. Specific fluorescence emission to determine the final results was calculated after subtracting the blank activity (b). Inhibitory potencies were expressed as RAs, and IC50 values were calculated as described in the section “Inhibition of hBChE and mAChE” above.

hMAO-B = target: T2, hMAO-B (Homo sapiens, UniProt P27338); test: biochemical; settings: for hMAO-B RA [%] / remaining activity at 10 µM: residual activity at 10 µM; for IC50: IC50 ± SEM; for remaining activity at 10 µM: read-out: hMAO-B RA (%)
T2 construct: purchased Sigma Aldrich; host or cells: BTI-TN-5B1-4 baculovirus-infected insect cells
T2 sequence (P27338 1-520): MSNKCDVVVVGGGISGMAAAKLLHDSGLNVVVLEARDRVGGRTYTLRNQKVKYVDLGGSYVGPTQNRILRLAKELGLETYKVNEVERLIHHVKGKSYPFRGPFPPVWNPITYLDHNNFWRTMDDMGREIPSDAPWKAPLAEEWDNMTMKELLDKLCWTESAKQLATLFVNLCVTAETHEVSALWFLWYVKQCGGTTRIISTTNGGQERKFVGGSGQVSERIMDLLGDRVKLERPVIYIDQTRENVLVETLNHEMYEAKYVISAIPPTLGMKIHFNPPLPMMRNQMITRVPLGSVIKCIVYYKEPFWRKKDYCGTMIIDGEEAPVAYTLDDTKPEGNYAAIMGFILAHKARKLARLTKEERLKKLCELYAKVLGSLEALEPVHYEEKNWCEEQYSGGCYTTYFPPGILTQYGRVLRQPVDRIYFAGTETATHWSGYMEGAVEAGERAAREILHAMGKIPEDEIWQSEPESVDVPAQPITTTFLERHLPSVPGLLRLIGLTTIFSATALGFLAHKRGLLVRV
From the text: as §1
After preincubation, the reaction was started by adding final concentrations of 200 µM Amplex Red reagent, 2 U/mL HRP, and 1 mM p-tyramine hydrochloride. Resorufin production was quantified based on the fluorescence produced (λex = 530 nm; λem = 590 nm) at 37 °C over a 20 min period. For the control experiments, DMSO was used instead of appropriate dilutions of the compounds in DMSO. For the determination of blank (b), the enzyme solution was replaced by a phosphate-buffered solution. Initial velocities were calculated from the obtained trend, with each measurement performed in duplicate. Specific fluorescence emission to determine the final results was calculated after subtracting the blank activity (b). Inhibitory potencies were expressed as RAs, and IC50 values were calculated as described in the section “Inhibition of hBChE and mAChE” above.

Sequence of MurC (P17952 whole entry): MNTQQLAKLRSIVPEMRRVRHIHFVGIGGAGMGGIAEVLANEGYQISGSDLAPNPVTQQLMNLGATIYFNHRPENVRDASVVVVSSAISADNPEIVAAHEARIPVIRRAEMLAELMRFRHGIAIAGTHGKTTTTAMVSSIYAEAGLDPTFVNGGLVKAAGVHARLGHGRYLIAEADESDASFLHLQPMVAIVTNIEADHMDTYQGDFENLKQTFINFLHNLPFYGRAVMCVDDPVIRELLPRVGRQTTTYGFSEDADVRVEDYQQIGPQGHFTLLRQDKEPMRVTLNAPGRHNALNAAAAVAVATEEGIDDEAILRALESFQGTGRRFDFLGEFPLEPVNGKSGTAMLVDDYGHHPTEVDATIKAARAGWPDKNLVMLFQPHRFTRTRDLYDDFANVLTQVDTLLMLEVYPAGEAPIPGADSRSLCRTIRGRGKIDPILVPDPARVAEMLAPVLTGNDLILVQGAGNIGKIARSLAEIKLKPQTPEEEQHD

CCCCc1nc2ccn(Cc3ccccc3Cl)c(=O)c2n1Cc1ccc(-c2ccccc2-c2nnn[nH]2)cc1 [Compound 11]
remaining activity at 100 µM (MurC): 20%
IC50 (MurC): 77 ± 12 µM

CCCCc1nc2ccn(CC(=O)N3CCCCC3)c(=O)c2n1Cc1ccc(-c2ccccc2S(=O)(=O)NC(=O)CCc2ccccc2)cc1F [Compound 16]
remaining activity at 100 µM (MurC): 53%

O=C(OCC1CCCN1c1ccnc2ncnn12)c1ccccc1I (stereo not drawn) [Compound S9]
hMAO-A RA [%] (hMAO-A; Table S3): 90%
hMAO-B RA [%] (hMAO-B; Table S3): 93%

O=C(OCC1CCCN1c1ccnc2ncnn12)c1cccc(OC(F)(F)F)c1 (stereo not drawn) [Compound S10]
hMAO-A RA [%] (hMAO-A; Table S3): 92%
hMAO-B RA [%] (hMAO-B; Table S3): 81%

CC(=O)N1CCc2cccc(OCC3CCCN3c3ccnc4ncnn34)c2C1 (stereo not drawn) [Compound S5]
hMAO-A RA [%] (hMAO-A; Table S3): 94%
hMAO-B RA [%] (hMAO-B; Table S3): 98%

COc1ccc2c3c([nH]c2c1)C(C)=NCC3 [Harmaline, reference compound]
remaining activity at 10 µM (hMAO-A; Table 3): 0%

CCCCc1nc2ccn(Cc3ccccc3C(=O)OC)c(=O)c2n1Cc1ccc(-c2ccccc2-c2nnn[nH]2)cc1 [Compound 12]
remaining activity at 100 µM (MurC): 27%
IC50 (MurC): 84 ± 15 µM

Nc1ccc(NC(=O)Nc2cc(C(F)(F)F)ccc2-n2cncn2)cc1 [Compound 23]
remaining activity at 10 µM (hMAO-A; Table 3): 100%
IC50 (hMAO-B; Table 3): 3 ± 0.8 µM
remaining activity at 10 µM (hMAO-B; Table 3): 24%

N#Cc1cccc(C(=O)OCC2CCCN2c2ccnc3ncnn23)c1 (stereo not drawn) [Compound S3]
hMAO-A RA [%] (hMAO-A; Table S3): 96%
hMAO-B RA [%] (hMAO-B; Table S3): 91%

CCCCc1nc2ccn(Cc3ccccc3C(=O)OCC)c(=O)c2n1Cc1ccc(-c2ccccc2C#N)cc1 [Compound 18]
remaining activity at 100 µM (MurC): 58%

O=C(OCC1CCCN1c1ccnc2ncnn12)c1cccc(CCl)c1 (stereo not drawn) [Compound S7]
hMAO-A RA [%] (hMAO-A; Table S3): 70%
hMAO-B RA [%] (hMAO-B; Table S3): 93%

O=C(Nc1cc(C(F)(F)F)ccc1-n1cncn1)Nc1ccc(OCCN2CCOCC2)c2ccccc12 [Compound 25]
remaining activity at 10 µM (hMAO-A; Table 3): 79%
remaining activity at 10 µM (hMAO-B; Table 3): 86%

CCCCc1nc2ccn(CC(=O)NC(C)(C)C)c(=O)c2n1Cc1ccc(-c2ccccc2S(=O)(=O)NC(=O)CCc2ccccc2)cc1F [Compound 15]
remaining activity at 100 µM (MurC): 59%
MurC inhibition (in words) (MurC): loss of MurC inhibition

CNC(=O)c1cc(Oc2ccc(NC(=O)Nc3cc(C(F)(F)F)ccc3-n3cncn3)cc2)ccn1 [Compound 21]
hMAO-A RA [%] (hMAO-A; Table 3): 92%
hMAO-B RA [%] (hMAO-B; Table 3): 88%

CCCCc1nc2ccn(CC(=O)C(C)(C)C)c(=O)c2n1Cc1ccc(-c2ccccc2-c2nnn[nH]2)cc1 [Compound 17]
remaining activity at 100 µM (MurC): 75%
MurC inhibition (in words) (MurC): loss of MurC inhibition

c1cc(OCC2CCCN2c2ccnc3ncnn23)c2ccncc2c1 (stereo not drawn) [Compound S2]
hMAO-A RA [%] (hMAO-A; Table S3): 87%
hMAO-B RA [%] (hMAO-B; Table S3): 88%

Nc1ncnc2c1ncn2-c1ccc(NC(=O)Nc2cc(C(F)(F)F)ccc2-n2cncn2)cc1 [Compound 22]
remaining activity at 10 µM (hMAO-A; Table 3): 111%
IC50 (hMAO-B; Table 3): 0.71 ± 0.1 µM
remaining activity at 10 µM (hMAO-B; Table 3): 6%

FC(F)(F)c1ccc2nccc(OCC3CCCN3c3ccnc4ncnn34)c2c1 (stereo not drawn) [Compound S1]
hMAO-A RA [%] (hMAO-A; Table S3): 70%
hMAO-B RA [%] (hMAO-B; Table S3): 75%

O=C(NCCc1ccc(Cl)cc1)c1cc(OCC2CCCN2c2ccnc3ncnn23)c2ccccc2n1 (stereo not drawn) [Compound S8]
hMAO-A RA [%] (hMAO-A; Table S3): 86%
hMAO-B RA [%] (hMAO-B; Table S3): 104%

CCCCc1nc2ccn(Cc3ccccc3C(=O)O)c(=O)c2n1Cc1ccc(-c2ccccc2-c2nnn[nH]2)cc1 [Compound 13]
remaining activity at 100 µM (MurC): 34%
IC50 (MurC): 109 ± 26 µM

CNC(=O)c1cc(Oc2ccc(NC(=O)Nc3cc(C(F)(F)F)ccc3F)cc2)ccn1 [Compound 24]
remaining activity at 10 µM (hMAO-A; Table 3): 100%
remaining activity at 10 µM (hMAO-B; Table 3): 100%

c1cc(OCC2CCCN2c2ccnc3ncnn23)c2cccnc2c1 (stereo not drawn) [Compound S4]
hMAO-A RA [%] (hMAO-A; Table S3): 80%
hMAO-B RA [%] (hMAO-B; Table S3): 99%

CCOc1cccc(C(=O)OCC2CCCN2c2ccnc3ncnn23)c1 (stereo not drawn) [Compound S6]
hMAO-A RA [%] (hMAO-A; Table S3): 96%
hMAO-B RA [%] (hMAO-B; Table S3): 88%

CCCCc1nc2ccn(Cc3ccccc3-c3ccccc3)c(=O)c2n1Cc1ccc(-c2ccccc2-c2nnn[nH]2)cc1 [Compound 19]
remaining activity at 100 µM (MurC): 15%
IC50 (MurC): 75 ± 9 µM

CN(C)CCOc1ccc(NC(=O)Nc2cc(C(F)(F)F)ccc2-n2cncn2)cc1 [Compound 27]
remaining activity at 10 µM (hMAO-A; Table 3): 117%
IC50 (hMAO-B; Table 3): 0.465 ± 0.042 µM
remaining activity at 10 µM (hMAO-B; Table 3): 6%

CCCCc1nc2ccn(Cc3ccccc3F)c(=O)c2n1Cc1ccc(-c2ccccc2-c2nnn[nH]2)cc1 [Compound 10]
remaining activity at 100 µM (MurC): 30%
IC50 (MurC): 92 ± 11 µM

CNC(=O)c1cc(Oc2ccc(NC(=O)Nc3cc(C(F)(F)F)ccc3-n3cncn3)cc2)ccn1 [Compound 20]
hMAO-A RA [%] (hMAO-A; Table 3): 60%
remaining activity at 10 µM (hMAO-B; Table 3): 99%

CNC(=O)c1cc(Oc2ccc(NC(=O)Nc3cc(C(F)(F)F)ccc3-n3cncn3)cc2)cc[n+]1[O-] [Compound 26]
remaining activity at 10 µM (hMAO-A; Table 3): 89%
remaining activity at 10 µM (hMAO-B; Table 3): 98%

O=C(Nc1ccc(OCCN2CCCCC2)cc1)Nc1cc(C(F)(F)F)ccc1-n1cncn1 [Compound 28]
remaining activity at 10 µM (hMAO-A; Table 3): 94%
IC50 (hMAO-B; Table 3): 2.6 ± 0.1 µM
remaining activity at 10 µM (hMAO-B; Table 3): 15%

CCCCc1nc2ccn(Cc3ccsc3)c(=O)c2n1Cc1ccc(-c2ccccc2-c2nnn[nH]2)cc1 [Compound 14]
remaining activity at 100 µM (MurC): 26%
IC50 (MurC): 90 ± 13 µM

CNC(=O)c1cc(Oc2ccc(NC(=O)Nc3ccc(Cl)c(C(F)(F)F)c3)cc2)ccn1 [Compound 29]
remaining activity at 10 µM (hMAO-A; Table 3): 86%
remaining activity at 10 µM (hMAO-B; Table 3): 89%
